Measurements from a melting point compilation (Tetko et al.; mined from patent text by program, amines drawn as free bases though some values may be those of a salt).

`CNC(=S)C1(c2cccc(C)n2)SCCCS1` gave a melting point of 168 °C.
Work on `CCOC(=O)C1=C(C)NC(c2csc(C)n2)=NC1c1cccc(Cl)c1` (stereo not drawn) yielded a melting point of 143 to 144 °C.
Work on `CC(C)(C)OC(=O)NCCCC(=O)NCCC(=O)OCc1ccccc1` yielded a melting point of 54 to 55 °C.
`O=C(O)Cc1cccc(CCNC(=O)C2Cc3ccccc3N2S(=O)(=O)c2ccc(-c3ccccc3C(F)(F)F)cc2)c1` (stereo not drawn) showed a melting point of 78 °C.
With `C[C@@H](NC(=O)[C@H](Cc1ccc(OC(C)(C)C)cc1)N(C)C(=O)OC(C)(C)C)C(=O)O` the melting point was 109 to 110 °C.
With `C=CCc1c(Cl)nc(NC=O)nc1Cl` the melting point was 85 to 86 °C.
Work on `O=C(O)c1cnc(S)n1Cc1cc(F)cc(F)c1` yielded a melting point of 240 to 241 °C.
For `Cc1ccc(Oc2ccc(-c3ccc(Cl)cc3)cc2)cc1`, the melting point was 130 °C.
For `COC(=O)c1ccc(NC(=O)c2cc(C(C)C)c(C(C)C)s2)cc1Cl`, the melting point was 153 to 154 °C.
`C#CCC(C)C(=O)N1c2ccccc2C(=O)Nc2cccnc21` (stereo not drawn) gave a melting point of 202 to 204 °C.
With `Cc1ccc(S(=O)(=O)OCC2CCc3ccc4[nH]c(=O)[nH]c4c3O2)cc1` (stereo not drawn) the melting point was 205 °C.
Compound `O=C(O)c1ccc(COc2ccc3cc(-c4ccc(-c5ccccc5)n4Cc4ccc(C(F)(F)F)cc4)ccc3c2)cc1` has a melting point of 228 to 229 °C.
In the case of `COc1cc(OC)nc(O[C@H]2CCCC[C@H]2C(=O)O)n1` (relative stereo), the melting point was 151 to 152 °C.
Work on `O=C1N(Cc2ncccc2C(F)(F)F)c2ccccc2C12COc1c(Cl)cc3c(c12)OCCO3` (stereo not drawn) yielded a melting point of 273 to 275 °C.
`CC1(C(=O)Nc2ccc(OCc3ccccc3)c(C(F)(F)F)c2)CC1` gave a melting point of 120 to 122 °C.
For `COc1ccc(N(c2nc(N)nc(NC3CC3)n2)C2CC2)cc1F`, the melting point was 91 to 92 °C.
Work on `CS(=O)(=O)c1cccc(-c2cc(N3CCOCC3)cc(Nc3ccc(OC(F)(F)F)cc3)n2)c1` yielded a melting point of 233 to 235 °C.
In the case of `CNC(=O)C(Cc1ccccc1)NC(=O)Nc1n[nH]c(=S)s1` (stereo not drawn), the melting point was 228 °C.
For `O=C(Cl)c1ccccc1NC(=O)c1ccccc1-c1ccccc1`, the melting point was 118 to 120 °C.
With `CCCCSc1ccc(-c2cc3ccccc3[nH]2)cc1` the melting point was 189 to 191 °C.
For `O=C(Nc1ccc([N+](=O)[O-])cc1)N(O)C1CCCCCCC1`, the melting point was 143 to 144 °C.
With `O=S(=O)(Cc1ccccc1)c1ccc(Cl)cc1` the melting point was 148 °C.
Work on `CS(=O)(=O)OCc1ccc(-c2nnc3n2-c2cccnc2Nc2ccccc2-3)cc1` yielded a melting point of 252 to 253 °C.
Compound `CC(C)(C)C1(COc2ccc(Cl)cc2)OS(=O)NC1=O` (stereo not drawn) has a melting point of 132 to 134 °C.
`O=c1c2ccccc2sc2cccc(Oc3cc(Cl)cc(Cl)c3)c12` gave a melting point of 207 to 213 °C.
`Cc1cc(Br)cnc1CCCCNC1=NS(=O)(=O)N=C1N` gave a melting point of 219 to 220 °C.
Compound `O=C(O)C1=Cc2cc(Oc3ccccc3)ccc2OC1C(F)(F)F` (stereo not drawn) has a melting point of 185 to 186 °C.
`NC(=O)N1C(=O)C(C(=O)c2cccs2)c2cc(Cl)ncc21` (stereo not drawn) gave a melting point of 252 °C.
Work on `CCS(=O)(=O)N[C@H](C(=O)NCCc1ccc(OCc2ccccc2)c(OC)c1)C(C)C` yielded a melting point of 140 to 142 °C.
`N=C(N)NC(=O)c1cn(-c2nccc3ccccc23)c2ncccc12` showed a melting point of 250 °C.
Compound `O=C(O)C1=Cc2cc(Cl)cc(CO)c2OC1C(F)(F)F` (stereo not drawn) has a melting point of 175 to 179 °C.
For `CCCCCCN1Cc2cc3ccccc3n2Cc2ccccc21`, the melting point was 45 °C.
With `N#Cc1ccc2nc(C(=O)NCc3cccc(NC(=O)CCc4nc[nH]n4)c3)[nH]c(=O)c2c1` the melting point was 298 to 301 °C.
Compound `CCC(CC)C(=O)OC1CC(C)C=C2C=CC(C)C(CCC3CC(O)CC(=O)O3)C21` (stereo not drawn) has a melting point of 120 to 122 °C.
Work on `COC(=O)C1=C(C)NN=C(c2ccccc2)C1c1ccccc1Cl` (stereo not drawn) yielded a melting point of 198 °C.
`OCc1cc2cc(-c3ccc(OC(F)(F)F)cc3)ccc2n1Cc1ccccc1` showed a melting point of 108 to 109 °C.
Compound `CN1CCC=C(c2nnn(C)n2)C1` has a melting point of 86 to 87 °C.
With `CC(C)(C)OC(=O)NCC12CN(c3cc4c(cc3F)c(=O)c(C(=O)O)cn4C3CC3)CC1CCO2` (stereo not drawn) the melting point was 235 to 237 °C.
Work on `Cc1ccc2c(O)cc(=O)oc2c1C` yielded a melting point of 186 to 190 °C.
With `CCOCc1nc2c(N)nc(C)c(C)c2n1CCNC(=O)NC1CCCCC1` the melting point was 188 to 190 °C.
`CCN(Cc1cc(Br)ccc1N)c1ccc(C(N)=O)nn1` showed a melting point of 208 to 210 °C.
With `CC(O)(C(=O)Nc1ccc(S(=O)(=O)c2ccccc2)cc1[N+](=O)[O-])C(F)(F)F` (stereo not drawn) the melting point was 191 to 192 °C.
With `COC(=O)CSC1NC(=O)c2sccc2-n2cccc21` (stereo not drawn) the melting point was 158 °C.
Work on `COc1ccc(Cl)c(Oc2c(CO)nc(N3CCOCC3)nc2NS(=O)(=O)c2ccc(C(C)C)cn2)c1` yielded a melting point of 105 °C.
Compound `N#Cc1ccc(-c2cn3cc(Br)ccc3n2)cc1` has a melting point of 218 to 219 °C.
`CC(C)C(NC(=O)Cn1cccc(NC(=O)Nc2ccccc2)c1=O)C(=O)C(F)(F)F` (stereo not drawn) showed a melting point of 94 to 106 °C.
With `Cc1cc(-c2nnc3c4ccccc4c(OCc4ncnn4C)nn23)no1` the melting point was 256 to 258 °C.
With `CN1CCC23COC(C)(C)OC2C1Cc1ccc(O)cc13` (stereo not drawn) the melting point was 237 to 238 °C.
In the case of `CCOC(=O)C(C)Oc1ncn(-c2ccc(OC)cc2)n1` (stereo not drawn), the melting point was 62 to 64 °C.
`CC=C(c1ccc(N(C)C)cc1)c1ccc(N(C)C)cc1` showed a melting point of 99 to 101 °C.
For `CCCn1cnc2ncnn2c1=S`, the melting point was 168 to 169 °C.
`Cc1ccccc1COC1(C)COC(CCl)OC1` (stereo not drawn) gave a melting point of 57 to 58 °C.
For `COc1ccccc1CN1C(=O)C2CCCC2N(C(=O)CN2C(=O)c3ccccc3C2=O)c2ccccc21` (stereo not drawn), the melting point was 261 to 272 °C.
Work on `CCOc1cc(OCCCc2cn(-c3ccc(C(F)(F)F)cn3)nc2C)ccc1CCC(=O)O` yielded a melting point of 129 to 130 °C.
With `NS(=O)(=O)c1cc2c(s1)SC(CC(=O)O)C(=O)N2` (stereo not drawn) the melting point was 240 °C.
Compound `CC(C)=CCCn1c(=O)sc2c(=O)[nH]c(N)nc21` has a melting point of 240 to 242 °C.
`CCC(O)(c1ccc(O)cc1)c1cccc(C(F)(F)F)c1` (stereo not drawn) showed a melting point of 102 to 103 °C.
In the case of `CNc1c(F)cc2c(=O)c(C(=O)O)cn(-c3ccc(F)c(O)c3)c2c1C`, the melting point was over 280 °C.
For `CNC1CCCN(c2ccc3c(NC(=O)CC4CCCCC4)c(Cl)ccc3n2)C1` (stereo not drawn), the melting point was 158 to 159 °C.
`CC(O)c1onc(-c2ccccc2Cl)c1C(=O)c1nnn(Cc2cc(C(F)(F)F)cc(C(F)(F)F)c2)c1N1CCOCC1` (stereo not drawn) gave a melting point of 145 to 146 °C.
In the case of `COC(=O)CC(=O)NC1CCCCC1`, the melting point was 77 to 78 °C.
`CNc1c(OC)cc(C(=O)OC)cc1OC` showed a melting point of 49 to 51 °C.
`CN1CCSC1=NC(=Nc1ccc(Cl)cc1)N1CCCC1` showed a melting point of 124 to 127 °C.
`Cc1c(C)c2c(c(C)c1Br)C(c1ccc(C(C)C)cc1)CO2` (stereo not drawn) showed a melting point of 86 to 87 °C.
With `CCN(CC)C(=O)n1cnc(S(=O)(=O)CC2CCCCCC2)n1` the melting point was 46 to 51 °C.
`Clc1ccc(-c2nc(Cl)nc(Cl)n2)c(Cl)c1` gave a melting point of 118 °C.
Work on `Cc1c(NC(=O)c2ccc(-c3ccc(F)c(F)c3)cc2)ccc2cc(CN3CCCC3)cnc12` yielded a melting point of 199 to 201 °C.
Work on `OC1OC2C(Br)C3CC1C2C3` (stereo not drawn) yielded a melting point of 61 °C.
Work on `CN1C(=O)C(C)(C)N=C(c2ccccc2F)c2c1ccc(N)c2Br` yielded a melting point of 217 to 220 °C.
Compound `CC(C)C[C@@H](C=O)NC(=O)[C@H](Cc1c[nH]cn1)NC(=O)[C@H](Cc1c[nH]c2ccccc12)NC(=O)OCc1ccccc1` has a melting point of 109 to 110 °C.
For `COc1cc(C)nc2c(O)cccc12`, the melting point was 110 to 112 °C.
`CC(C)CCOc1ccc(OCn2cnc(Cl)c2Cl)cc1` gave a melting point of 105 to 108 °C.
In the case of `CCC(C)(C)c1cc(-c2c[nH]c(C=C3SC(N4CCOCC4)=NC3=O)c2)ccc1O`, the melting point was 314 °C.
`COc1cc(C(=O)c2nc(NC(=O)C(F)(F)F)c3ccccn23)ccc1[N+](=O)[O-]` gave a melting point of 228 °C.
`N#Cc1ccc(N2CCC(CO)CC2)c2ccccc12` gave a melting point of 135 to 136 °C.
Compound `Cc1ccccc1N1CCN(S(=O)(=O)CC23CCC(CC2=NO)C3(C)C)CC1` (stereo not drawn) has a melting point of 174 to 175 °C.
In the case of `O=C(Cl)Cc1ccc([N+](=O)[O-])cc1`, the melting point was 47.5 to 49 °C.
With `Fc1ccc(Nc2nc(NCc3ccc(Cl)nc3)nc(NN=Cc3ccc(OC(F)(F)F)cc3)n2)cc1C(F)(F)F` the melting point was 117 to 125 °C.
Work on `CCOC(=O)c1cc(NCc2c(C)cccc2C)c2nc(COC)n(C)c2c1` yielded a melting point of 134 to 135 °C.
Work on `CCOC(=O)c1c(N2CCN(C(=O)c3cccs3)CC2)c2cc(F)cnc2n(CC(=O)c2ccccc2)c1=O` yielded a melting point of 262 °C.
Work on `COc1ccc(-c2c(-c3ccc(S(N)(=O)=O)cc3)[nH]c3ccccc23)cc1` yielded a melting point of 280 to 282 °C.
Work on `CCOC(=O)C(C)Oc1ccc(Sc2ccc(C(F)(F)F)cc2[N+](=O)[O-])cc1` (stereo not drawn) yielded a melting point of 63 to 64 °C.
`CCOC(=O)CC[C@H](NC(=O)c1ccc(CNCc2cnc3nc(NC(=O)C(C)(C)C)nc(O)c3c2)cc1)C(=O)OCC` showed a melting point of 149 to 151 °C.
Compound `N#Cc1ccc(C(=O)NCc2ccc(N3CC(C(=O)O)OC3=O)cc2)cc1` (stereo not drawn) has a melting point of 234 °C.
With `O=C(CCCCC1CCSS1)n1ccnc1` (stereo not drawn) the melting point was 37 to 39 °C.
Compound `COc1cccc(-c2ccc3c(c2)C(C)(C)OC(=S)N3)c1` has a melting point of 142 to 143 °C.
For `Cc1cc(C#N)cc(C)c1Oc1ncnc(Nc2ccc(C#N)cc2)n1`, the melting point was 248 to 250 °C.
With `CC(=NOCCOc1ccc(CC2SC(=O)NC2=O)cc1)c1cncc(-c2ccccc2)c1` (stereo not drawn) the melting point was 150 to 153 °C.
With `O=C(OCc1ccccc1)c1cc2cc([N+](=O)[O-])ccc2[nH]1` the melting point was 192 °C.
For `CN1C(=O)C(C)(C)Oc2ccc(C3=NNC(=O)CC3)cc21`, the melting point was 169 to 171 °C.
In the case of `NCCc1ccc(N2C(=O)N(c3ccc(Cl)cc3Cl)Cc3cnc(Nc4ccccc4)nc32)cc1`, the melting point was 117 to 121 °C.
`CNC(=O)n1cc(C(N)=O)nc1C(C)(C)C` gave a melting point of 145 to 147 °C.
In the case of `Cc1ccc2c(c1)C=Cc1cc(C)ccc1C2c1cn(-c2cc(N(C)CC(=O)Nc3nc(CC(=O)O)cs3)ncn2)c(=O)[nH]c1=S`, the melting point was 215 °C.
For `COCCOc1cc(-c2ccccn2)nc(-c2ccccn2)c1`, the melting point was 105 to 106 °C.
`CN1C(=O)N(c2cc(F)ccc2F)C(=O)C1=Cc1ccccc1F` gave a melting point of 94 to 97 °C.
In the case of `O=c1[nH]c2c(n(O)c1=O)C1=C(CCC(n3ccc(CN4CCN(C(c5ccccc5)c5ccccc5)CC4)c3)=C1)CC2`, the melting point was over 200 °C.
In the case of `COc1nc(C)c(CCN2CC=C(c3c[nH]c4ccccc34)CC2)c(=O)n1C`, the melting point was 209 to 211 °C.
`CC(C)(C)OC(=O)CON=C(c1ccccc1)c1cc2ccncc2[nH]1` showed a melting point of 47 to 52 °C.
